Experimental data from publication PMC7864049, “Co-crystal structures of HIV TAR RNA bound to lab-evolved proteins show key roles for arginine relevant to the design of cyclic peptide TAR inhibitors” (The Journal of Biological Chemistry, 2021).
“And” between values parts separate entries of the source, which are not always exact repeats. Equal entries are not always repeated. “Also recorded” adds a separate entry of the source. Where two headings read alike, the source gives them in different places. Where no end group is shown, it is not given here.

How the values were obtained:
[1] = system: HIV-1 TAR RNA (biotinylated TAR 27-mer); format: binding
HIV-1 TAR RNA (27-mer) = format: binding
[2] = system: Tat ARM binding to HIV-1 TAR RNA
[3] = pH 7.5, read-out: KD (apparent)

Substance | koff [1] [s⁻¹] | koff × 10^−2 [1] | kon [1] | Kd [1, 3] [µM] | Kd ([1]; read-out: KD) [µM] | Kd (HIV-1 TAR RNA (27-mer)) [µM] | ΔG° (HIV-1 TAR RNA (27-mer)) [kcal/mol] | ΔH° (HIV-1 TAR RNA (27-mer)) [kca/mol] | −TΔS° (HIV-1 TAR RNA (27-mer)) [kcal/mol] | Kd (HIV-1 TAR RNA (27-mer); pH 7.5) [µM] | block of Tat ARM binding to TAR [2] | TAR binding in presence of tRNA [1] | fold difference in TAR-binding affinity [1] | fold increase in kon [1] | kon × 10^2 ([1]; 0.625–20 μM)
PRQRTPRGQ (also: sidechain bridge or staple (positions not given here)) [TB-CP-6.7a, two terminal cysteines cross-linked via a methylene bridge] | 0.018 ± 0.0001 | 1.90 10^−2 s^−1 | 863.0 ± 59.0 M⁻¹ s⁻¹ and 803 ± 14 M⁻¹ s⁻¹ | 22 | 23 ± 0.1 | – | – | – | – | – | – | – | – | – | –
RRRTPR (also: sidechain bridge or staple (positions not given here)) [TB-CP-6.9a, cyclic peptide (11-mer] | 0.024 ± 0.0001 | 2.75 10^−2 s^−1 | 7463 ± 130 M⁻¹ s⁻¹ | 3.6 | 3.2 ± 0.8 | 5 ± 0.6 | -7.1 ± 0.02 | −7.2 ± 0.2 | 0.1 ± 0.2 | 5.3 ± 0.2 | formed a complex with TAR that occluded Tat-binding sites; also recorded: effectively block the interaction of TAR with the Tat ARM | capable of binding under this condition | ~6 -fold | 8 -fold | 76.50 10^2 M^−1s^−1
